We go through five compounds from paper PMC9305947, “Rational Design of Phe‐BODIPY Amino Acids as Fluorogenic Building Blocks for Peptide‐Based Detection of Urinary Tract Candida Infections” (Angewandte Chemie (International Ed. in English), 2022).

The format of data set [1] is in vitro ADME, human. The note with it: diluted urine (urine:water 1:6). From the text: To the best of our knowledge, compound 11 represents the first example of a Phe‐based BODIPY amino acid for SPPS with strong emission in the red region of the visible spectrum. Prior to the incorporation of Phe‐(pMP)BODIPY amino acid 11 into peptides that could detect Candida fungal cells, we prepared a small collection of Phe‐containing antimicrobial peptides as fungal‐targeting scaffolds that could later accommodate BODIPY‐based aromatic FlAAs (Figure 4b). We selected peptide analogues derived from the natural occurring temporin L (Rana temporaria, peptide 12),[31] jelleine‐I (Apis mellifera, peptide 13)[32] and Aurein1.2 (Litoria aurea or Litoria raniformis, peptide 15).[33] […] We next analysed the biological profile of peptide 17 in fungal cells and its selectivity over bacteria. […] Furthermore, we evaluated the photo‐ and chemical stability of the peptide 17 in human urine upon continuous light irradiation. In these assays, we ran both fluorescence and HPLC analysis to confirm that the peptide 17 was fully stable for the clinical evaluation of urine samples using fluorescence‐based assays (Figure 4e and Figure S13).
[…] Environmental sensitivity was measured by comparing the fl uore sce nc e emission in Me OH vs gl yc e rol (c om pounds 4-7) a nd i n pre se nc e of l i posom e suspe nsi ons i n PB Sor PBS a l one (c om pound 17). […]

The test system of data set [2] is C. inconspicua. It is filed as cell-based, Candida inconspicua. The conditions noted are these: 48 h. The method, then:
(§1) Figure 4 a) Synthetic procedure for the preparation Fmoc‐Phe(pMP‐BODIPY)‐OH (11). Inset: pictures of solutions of probe 17 (30 μM) under excitation with a 365 nm UV‐lamp in PBS (left) and in liposomes (right). b) Minimum inhibitory concentration (MIC) values of peptides 12–16 against different Candida strains (5×10^5 cells mL^−1) in 20 % Vogel's medium after 48 h incubation at 37 °C. MIC was determined by brightfield microscopy from three independent experiments. c) Chemical structure of peptide 17 and fluorogenic response (25 μM) in PBS (black) and in aqueous suspensions containing liposomes (red). λ exc: 530 nm (n=3). d) MIC values of peptide 17 against different Candida strains and bacteria (5×10^5 cells mL^−1) in 10 % liquid LB medium after 48 h incubation at 37 °C. MIC was determined by brightfield microscopy from three independent experiments (n=3). e) Normalised fluorescence of probe 17 (30 μM) when incubated in diluted urine samples under continuous light irradiation. λ exc: 530 nm. Data presented as mean±SD (n=3). TEXT PRINTED IN THE PICTURE: (a) no label printed: QY 0.08% (OFF); QY 14.9% (ON) | (b) 12: MIC (μmol L^-1) C. inconspic.: 60; MIC (μmol L^-1) C. arius: > 60; MIC (μmol L^-1) C. albicans: 15; MIC (μmol L^-1) C. rugosa: 15; MIC (μmol L^-1) C. glabrata: 30; MIC (μmol L^-1) C. krusei: 30 | (b) 13: MIC (μmol L^-1) C. inconspic.: 2; MIC (μmol L^-1) C. arius: 4; MIC (μmol L^-1) C. albicans: 4; MIC (μmol L^-1) C. rugosa: 16; MIC (μmol L^-1) C. glabrata: 8; MIC (μmol L^-1) C. krusei: 4 | (b) 14: MIC (μmol L^-1) C. inconspic.: > 60; MIC (μmol L^-1) C. arius: > 60; MIC (μmol L^-1) C. albicans: > 60; MIC (μmol L^-1) C. rugosa: > 60; MIC (μmol L^-1) C. glabrata: > 60; MIC (μmol L^-1) C. krusei: > 60 | (b) 15: MIC (μmol L^-1) C. inconspic.: 4; MIC (μmol L^-1) C. arius: > 60; MIC (μmol L^-1) C. albicans: 16; MIC (μmol L^-1) C. rugosa: > 60; MIC (μmol L^-1) C. glabrata: 16; MIC (μmol L^-1) C. krusei: 8 | (b) 16: MIC (μmol L^-1) C. inconspic.: 2; MIC (μmol L^-1) C. arius: 32; MIC (μmol L^-1) C. albicans: 4; MIC (μmol L^-1) C. rugosa: 32; MIC (μmol L^-1) C. glabrata: 4; MIC (μmol L^-1) C. krusei: 8 | (c) peptide 17: λexc.: 530 nm; λem.: 625 nm | (d) peptide 17: MIC (μmol L^-1) C. inconspicua: 8; MIC (μmol L^-1) C. arius: 64; MIC (μmol L^-1) C. albicans: 16; MIC (μmol L^-1) C. rugosa: 64; MIC (μmol L^-1) C. glabrata: 32; MIC (μmol L^-1) C. krusei: 8; MIC (μmol L^-1) E. Coli: > 200 DOUBTS OF THE COPYIST ABOUT THIS PICTURE: Panel a, QY 0.08% / 14.9%: the picture prints no substance label beside the OFF/ON photographs, so the label is left empty / Panel d: the table itself prints no substance label; it is assigned to 'peptide 17', printed directly above it in panel c / Panel c, λexc. 530 nm and λem. […]

The test system of data set [3] is C. rugosa. It counts as cell-based, Candida rugosa. The conditions noted are these: 48 h. The method, then: as §1
Data set [4] relates to C. glabrata. It is filed as cell-based, Candida glabrata. The note with it: 48 h. The protocol: as §1
Data set [5] relates to C. krusei. It counts as cell-based, Candida krusei. The note with it: 48 h. The protocol: as §1
Data set [6] concerns C. albicans. It is filed as cell-based, Candida albicans. The conditions noted are these: 48 h. The protocol: as §1

≈ marks a conversion by molar mass, not a printed value. *1 amine or outer side, *2 acyl side, *3 side chain or, on linkers, in order; H or OH if unused. Where a SMILES comes first, the peptide text is derived from it. Where no end group is shown, it is not given here. [ ]: non-standard residue; d: D form. X1 = COc1ccc(C2=[N+]3C(=C(c4ccc(C[C@H](N[*:1])C(=O)[*:2])cc4)c4ccc(-c5ccc(OC)cc5)n4[B-]3(F)F)C=C2)cc1 Where only a bound is given, the exact number is not on record here.

As to `CC[C@H](C)[C@H](NC(=O)[C@H](CO)NC(=O)[C@@H](NC(=O)[C@H](CCCCN)NC(=O)[C@H](Cc1ccc(C2=C3C=CC(c4ccc(OC)cc4)=[N+]3[B-](F)(F)n3c2ccc3-c2ccc(OC)cc2)cc1)NC(=O)[C@@H]1CCCN1)[C@@H](C)CC)C(=O)N[C@@H](Cc1c[nH]cn1)C(=O)N[C@@H](CC(C)C)C(N)=O` [peptide 17, H-Pro-Phe(pMP-BODIPY)-Lys-Ile-Ser-Ile-His-Leu-NH2] (H-P[X1]KISIHL-NH2), the “Photostability in human urine upon continuous light irradiation” value in data set [1] (30 µM, 384-well plates, 37 °C, fluorescence emission 644 nm, λexc 530 nm, mean of three independent experiments n=3) is given as “fully stable”. In addition, the “Chemical stability (integrity) in human urine” value in data set [1] (100 µM, 37 °C, 0, 1 and 10 h, HPLC-MS, absorbance 570 nm) is listed as “fully stable”.

For the compound WFKIIKK-NH2 [peptide 15], the “MIC C. inconspic.” value in data set [2] stood at 4 µM. The “MIC C. rugosa” value in data set [3] is over 60 µM. In data set [4], the “MIC C. glabrata” value was determined as 16 µM. For the same compound, the “MIC C. krusei” value in data set [5] was found to be 8 µM. The “MIC C. albicans” value in data set [6] is 16 µM.

For `CC[C@H](C)[C@@H]1NC(=O)[C@H](CO)NC(=O)[C@H]([C@@H](C)CC)NC(=O)[C@H](CCCCN)NC(=O)[C@H](Cc2ccccc2)NC(=O)[C@@H]2CCCN2C(=O)[C@H](CC(C)C)NC(=O)[C@H](Cc2c[nH]cn2)NC1=O` [peptide 14] (cyclo(FKISIHLP)), in data set [2], the “MIC C. inconspic.” value was over 60 µM. Besides, in data set [3], the “MIC C. rugosa” value is over 60 µM. The “MIC C. glabrata” value in data set [4] was over 60 µM. In data set [5], the “MIC C. krusei” value was over 60 µM. Moreover, in data set [6], the “MIC C. albicans” value is over 60 µM.

“H-FVQWFSKFLGKIL-NH2 [peptide 12, H-Phe-Val-Gln-Trp-Phe-Ser-Lys-Phe-Leu-Gly-Lys-Ile-Leu-NH2]”: the “MIC C. inconspic.” value in data set [2] worked out at 60 µM. In data set [3], the “MIC C. rugosa” value is 15 µM. Also, the “MIC C. glabrata” value in data set [4] amounted to 30 µM. Besides, the “MIC C. krusei” value in data set [5] is 30 µM. In data set [6], the “MIC C. albicans” value amounted to 15 µM.

In the case of `CC[C@H](C)[C@@H]1NC(=O)[C@H](CCCCN)NC(=O)[C@H](Cc2ccccc2)NC(=O)[C@H](Cc2c[nH]c3ccccc23)NC(=O)[C@H](CCCCN)NC(=O)[C@H](CCCCN)NC(=O)[C@H]([C@@H](C)CC)NC1=O` [compound 16] (cyclo(FKIIKKW)), in data set [2], the “MIC C. inconspic.” value amounted to 2 µM (≈ 1.89 µg/mL). The “MIC C. rugosa” value in data set [3] is 32 µM (≈ 30.2 µg/mL). Moreover, the “MIC C. glabrata” value in data set [4] stood at 4 µM (≈ 3.78 µg/mL). Moreover, in data set [5], the “MIC C. krusei” value was found to be 8 µM (≈ 7.55 µg/mL). For the same compound, the “MIC C. albicans” value in data set [6] worked out at 4 µM (≈ 3.78 µg/mL).
